These results are taken from US20110136897A1, “TOLL-LIKE RECEPTOR 9 AGONISTS FOR THE TREATMENT OF ANXIETY-RELATED DISORDERS AND INFLAMMATORY DISORDERS” (YISSUM RESEARCH DEVELOPMENT COMPANY OF THE HEBREW …, priority 2008, published 2011).

For one data set, the system named is hippocampus. As to the kind of experiment: RT-PCR of anxiety-related hippocampal transcripts, 4 days following stress. Format: in vivo, mouse. The procedure: (§1) Animals were randomly divided into 5 groups. The following daily treatments initiated immediately before stressor exposure and for a total of four consecutive days: saline, 50 μg/kg ODN1826, 50 μg/kg mEN101, 50 μg/kg μg mEN101 and 500 μg/kg μg ODN2088. Oligonucleotides were delivered in 300 μl 0.9% NaCl solution (Teva, Israel). A control group was exposed to fresh, unused litter. Animals were sacrificed and brains dissected on day 1 2 h after the stressor, on day 4 2 h after the last injection, or on day 7 2 h after the behavioral tests, as noted.
Real-time PCR (RT-PCR): Brains were dissected and tissues stored frozen at −70° C. until use. Hippocampal RNA was extracted using the RNeasy Tissue Mini Kit (Qiagen, Germany). Total RNA was reverse-transcribed (200 ng) using Impromp-II reverse transcriptase (Promega, Madison, Wis.) as instructed. RT-PCR was performed using Power SYBR®Green PCR Master Mix (Applied Biosystems, UK) in a 7900 HT Sequence Detection System (Applied Biosystems, Foster City, Calif.). Quantification was assessed at the logarithmic phase of the PCR reaction. The PCR annealing temperature was 60° C. for all primer pairs. GAPDH was used as a house-keeping gene.
The transcription factor early growth response gene 1 (egr-1) is a central mediator of inflammation and is broadly and constitutively expressed in the central nervous system (CNS). […]

Data set [1] concerns RAW264.7 cells. As to the kind of experiment: HSP90β mRNA RT-PCR in RAW264.7 cells. To be noted: with mEN101, 24 hours. It is filed as cell-based, mouse. The procedure:
Cell cultures: The mouse macrophage cell line RAW 264.7 (ATCC, MD) was cultured in Dulbecco's modified Eagle's medium (DMEM) (Biological Industries, Israel) supplemented with 10% heat-inactivated fetal bovine serum (Biological Industries, Israel), 100 μg/ml streptomycin (Sigma), 100 U/ml penicillin (Sigma) and 2 mM 1-glutamine (Biological Industries, Israel) at 37° C. in a humidified atmosphere with 5% CO2.
(§2) Real-time PCR (RT-PCR): RAW264.7 cells and spleen were used for RT-PCR. 1×10^6 RAW264.7 cells were grown in 2 ml medium in 6 wells plates until 80% confluence was obtained. Total RNA was extracted using the RNeasy kit (Qiagen, CA, USA). Spleen and brain tissues' RNA was extracted using the RNeasy Tissue Mini Kit (Qiagen, Germany). In all cases, total RNA was reverse-transcribed (200 ng) using Impromp-II reverse transcriptase (Promega, WI, USA) according to manufacturer's instructions. RT-PCR was performed using Power SYBR®Green PCR Master Mix (Applied Biosystems, UK) in a 7900 HT Sequence Detection System (Applied Biosystems, CA). Quantification was assessed at the logarithmic phase of the PCR reaction. The PCR annealing temperature was 60° C. for all primer pairs.

The subject of the next data set is FVB/N mice. As to the kind of experiment: Predator (cat) odor stress paradigm, elevated plus maze (EPM) and acoustic startle response (ASR) one week post-exposure. It is filed as in vivo, mouse. The procedure:
Animals: FVB/N or adult TLR9 −/− mice and strain-matched wild type C57/B6J mice were housed four per cage, with constant temperature (21±1° C.), a 12 hour light/dark cycle, free access to food and water and habituation to the housing conditions by daily handling. Experiments were performed 1 week after arrival in the animal facility.
Behavioral paradigms: Mice were placed for 10 minutes on well-soiled cat litter (in use by the cat for 2 days, sifted for stools). One week after exposure, animals were tested according to Cohen et al. (2005) Biol Psychiatry 58, 640 in the elevated plus maze (EPM) and the acoustic startle response (ASR) paradigms. The EPM is a plus-shaped platform with two opposing open arms and two opposing closed arms (surrounded by 14-cm high opaque walls on three sides). Mice were placed on the central platform and were allowed to explore the maze for 5 min. […]
Startle response was measured using two ventilated startle chambers (SR-LAB System, San Diego Instruments, San Diego, Calif.). Each Plexiglas cylinder rests on a platform inside a sound-attenuated, ventilated chamber. Startle sessions started with a 5-minute acclimatization period to a background of 68 dB white noise, followed by 30 acoustic startle stimuli (110 dB white noise of 40 ms duration with 30 s or 45 s inter-trial interval). Startle amplitude was averaged over all 30 trials, and percent habituation was calculated as the percent difference between the response to the first block of stimuli and to the last one.
as §1
To challenge the hypothesis that TLR9 activation modulates psychological stress reactions, mice were exposed to the predator odor stress paradigm (Cohen, H., Zohar, J., Matar, M. A., Kaplan, Z. & Geva, A. B. (2005) Biol Psychiatry 58, 640-50) and treated them with TLR9 activating or blocking oligonucleotides and with a known stress-suppressing oligonucleotide, mEN101. One week post-exposure, treated mice were tested for avoidance behavior and hyper-arousal in the elevated plus maze (EPM) and acoustic startle response (ASR) tests, respectively (FIG. 1B). […] They also presented greater startle amplitude (F5,103=10.75, p<0.0001; p<0.0001) and decreased startle habituation ([…]; p<0.0001) than control mice (FIG. 1C). The traumatic experience conferred varied impacts in the exposed mice, ranging from drastically maladaptive behavior to generally unmodified response patterns.

The test system of data set [2] is RAW264.7 cells. As to the kind of experiment: Nitric oxide (NO) production, Griess reaction. To be noted: added with 10 μM mEN101. It is filed as cell-based, mouse. The procedure:
The mouse macrophage cell line RAW 264.7 (ATCC, Bethesda, Md.) was cultured in Dulbecco's modified Eagle's medium (DMEM) (Biological Industries) supplemented with 10% heat-inactivated fetal bovine serum (Biological Industries, Israel), 100 μg/ml streptomycin, 100 U/ml penicillin (Sigma) and 2 mM 1-glutamine (Biological Industries) at 37° C. in a humidified atmosphere with 5% CO2.
Determination of nitric oxide (NO) production: Nitrite concentration in the medium of cultured cells was measured as an indicator of NO production according to the Griess reaction. 1×10^5 mouse RAW264.7 cells were grown in 0.5 ml medium in 48-wells plate until 80% confluence was obtained. […] (1% sulfanilamide, 0.1% naphthylethylenediamine dihydrochloride, 5% H3PO4). Absorbance was read at 540 nm after 10 min using SPECTRAFluor Plus spectrophotometer (TECAN, UK).
To further characterize the TLR9 activating features of mEN101, mEN101 was applied to RAW264.7 cells (n=4 repeats) for 24 hours and the subsequent production of inflammatory markers was quantified. […] Addition of chloroquine (CQ), a weak base that perturbs endosomal pH and thus disturbs endosomal maturation, as well as the specific TLR9 inhibiting oligonucleotides ODN2088 and ODN TTAGGG (17), all blocked the 10 μM mEN101-driven increases in NO (p<0.015) (FIG. 2A). Thus, both gain and loss of function tests validated the nature of mEN101 as an endosomally active TLR9 activator, albeit a weak one.
(The Griess reaction detects nitrite, a stable product of nitric oxide.)

The subject of the next data set is HSP90β mRNA. As to the kind of experiment: HSP90β mRNA RT-PCR in spleen and frontal lobe of stressed mice. It is filed as in vivo, mouse. To be noted: co-administration with mEN101. The protocol:
Animals: The stress paradigm consisted of placing the test animals on well-soiled cat litter for 10 minutes (in use by the cat for 2 days, sifted for stools). Tissues were removed 4 days following exposure.
as §2

Data set [3] has as its system RAW264.7 cells. As to the kind of experiment: Nitric oxide (NO) production, Griess reaction. Format: cell-based, mouse. To be noted: with 1 μM mEN101.
Where [4] appears, read: 500 μg/kg co-administered with 50 μg/kg mEN101.

“Also recorded” adds a separate entry of the source. In the oligonucleotide strings, read from the 5' end, every base follows the letter of its sugar. An asterisk marks phosphorothioate; unmarked linkages are phosphodiester. Other units and linkages are bracketed, terminal groups are in braces. A string of capitals states the bases alone. d = 2'-deoxy (DNA)

Turning to “5′-TCCTGGCGGGGAAGT-3′ (dT*dC*dC*dT*dG*dG*dC*dG*dG*dG*dG*dA*dA*dG*dT) [ODN2088]”, the “effect on mEN101-induced modulation of hippocampal genes” value in the data set with hippocampus (co-administration with mEN101) was “abolished the mEN101-induced modulation of these genes”. Moreover, the “anxiety-related transcripts GABRA2, CHRNA7, ADCYAP1R1, PKCB, CHRBP and CAMK2A (FIGS. 5A-F legend)” value in the data set with hippocampus (co-administration with mEN101, day 4) was “reduced to control levels”. For the same substance, the “effect on mEN101 up-regulation of HSP90β mRNA” value with RAW264.7 cells [1] is listed as “abolished”. In the data set on FVB/N mice (setting [4]), the “EPM score of co-treated mice vs mEN101-treated mice” value is listed as “larger EPM scores”, the “effect on mEN101 anxiolytic effects” value was “abolished much of the mEN101 anxiolytic effects; also recorded: abolished the mEN101-induced amelioration of anxiety-correlated behaviors”, the “habituation to acoustic startle of co-treated mice vs mEN101-treated mice” value is on record as “smaller habituation to acoustic startle” and the “startle response of co-treated mice” value was “remained unchanged”. Also, the “anxiety index (AI): effect on mEN101 ameliorative effect” value with FVB/N mice (co-administered with mEN101, compared to mEN101 treated mice) is reported as “abolished mEN101 ameliorative effect”. The “effect on 10 μM mEN101-driven increases in NO” value with RAW264.7 cells [2] was “blocked”. In addition, the “effect on HSP90β mRNA up-regulation” value in the data set with HSP90β mRNA is listed as “completely abolished; also recorded: blocked”. Also, in the data set on RAW264.7 cells [3], the “effect on mEN101 effects on NO production (FIG. 2A legend)” value was “abolished”.
